From patent US20240299562A1 (priority 2020, published 2024)
Where two headings read alike, the source gives them in different places. *1 amine or outer side, *2 acyl side, *3 side chain or, on linkers, in order; H or OH if unused. Where a SMILES comes first, the peptide text is derived from it. [ ]: non-standard residue; d: D form. The star is where a group is joined. X1 = CO[C@@H](C1CCCN1[*:1])[C@@H](C)C(=O)[*:2]; Dil = CC[C@H](C)[C@H](NC)[C@@H](CC(=O)O)OC; PABC = O=C(OCc1ccc(N[*:1])cc1)[*:2]; Phosphonoacetyl = O=C(CP(=O)(O)O)*; X2 = C[C@@H](N*)[C@@H](O)c1ccccc1; NMeV = CN[C@H](C(=O)O)C(C)C

Tests used:
DU145 cells = assay: WST-1 cell viability, DU145 prostate cancer cells; assay type: cell-based; details: for SI = HME-1 IC50/cancer IC50: DU145 (PrC) vs HME-1 (Table 3); for IC50: WST-1 (Table 1), read-out: Absolute IC50
Method: (§1) All commercial cell lines were purchased at ATCC (LGC Standards SARL, France). Cells were seeded in 96-well plates according to their optimal seeding density, varying between 5.000 and 10.000 cells/well. After attachment overnight, 10-point serial titrations (1:5) were prepared in their equivalent complete media as recommended by ATCC, starting from the 10 mM stock solutions. For doxorubicin comprising prodrugs dilutions started from 100 μM, while for the parent compound doxorubicin dilutions started at 10 μM. […] Seventy-two hours later, compounds were removed together with the supernatants and cells were washed once with PBS to remove excess drugs.
(§2) The WST-1 assay for cell proliferation and viability (Roche, Switzerland) was performed according to manufacturer's protocol. Absorbances were measured at 4 hrs using a Perkin Elmer Ensight multiplate reader, equipped with Kaleido 2.0 software (Perkin Elmer, USA). Cell viability was expressed as a percentage compared to non-treated cells. Absolute IC50 values were extrapolated from a non-linear fitting following the Sigmoidal-4PL regression method using Graphpad Prism 7.0. Likewise, maximal efficacy was determined as 100% minus the cell viability determined when cells are incubated in the presence of a compound. For instance, if 20% of the cells survive incubation in the presence of a compound, then the maximal efficacy of that compound is 100%-20%=80%.
(§3) Selectivity indices (SI) were defined as the ratio of the concentration of drug required to kill 50% of the cells in normal (control, non-cancer) cells, divided by the concentration required to exert the same efficacy in tumor cells: SI=IC50 (control cell)/IC50 (cancer cell), or SI=^HME-1IC50/cancer IC50.

A2780 cells = assay: WST-1 cell viability, A2780 ovarian cancer cells; assay type: cell-based; details: for SI = HME-1 IC50/cancer IC50: A2780 (OvC) vs HME-1 (Table 3); for IC50: WST-1 (Table 1), read-out: Absolute IC50
Method: as §1, §2, §3

HCT-116 cells = assay: WST-1 cell viability, HCT-116 colorectal cancer cells; assay type: cell-based; details: for SI = HME-1 IC50/cancer IC50: HCT-116 (CrC) vs HME-1 (Table 3); for IC50: WST-1 (Table 1), read-out: Absolute IC50
Method: as §1, §2, §3

[1] = WST-1 cell viability, normal HME-1 cells; assay type: cell-based, human; details: human
Procedure, shortened: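 Viability was measured by WST-1 absorbance 4 h after reagent addition, expressed relative to non-treated cells. Beforehand, overnight-attached cells had been treated for seventy-two hours with ten-point 1:5 dilution series and washed with PBS. IC50 values came from four-parameter sigmoidal fitting.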

LS 174T cells = assay: WST-1 cell viability, LS 174T colorectal cancer cells; assay type: cell-based; details: for IC50: WST-1 (Table 1), read-out: Absolute IC50; for SI = HME-1 IC50/cancer IC50: LS 174T (CrC) vs HME-1 (Table 3)
Method: as §1, §2, §3

A2780 Cp cells = assay: WST-1 cell viability, A2780 CpR (cisplatin resistant) ovarian cancer cells; assay type: cell-based; details: for IC50: A2780 Cp (OvC, cisplatin resistant), WST-1 (Table 1), read-out: Absolute IC50; for SI = HME-1 IC50/cancer IC50: A2780 Cp (OvC) vs HME-1 (Table 3)
Method: as §1, §2, §3

[2] = system: Human umbilical vein endothelial cells (HUVEC); assay: WST-1 cell viability, normal HUVEC cells; assay type: cell-based; details: 72 hrs; for IC50: WST-1 (Table 4), read-out: Absolute IC50; for Maximal efficacy: WST-1 (Table 5)
Method: as §1, §2, §3

[3] = system: U87 MG glioblastoma cells subcutaneously implanted in nude NMRI mice; assay: In vivo activity of PhAc-ALLP-PABC-MMAE on U87 MG glioblastoma xenograft; design: species or system mouse; details: 2 mg/kg iv, once per week
Method: The in vivo efficacy of PhAc-ALLP-PABC-MMAE was tested in a mouse GBM model. U87 MG glioblastoma cells were subcutaneously (SC) implanted in nude NMRI mice. In total, 24 adult (9-10 weeks old) nude female NMRI mice (Janvier, France) were subjected to SC tumor cell grafting in the right flank. In total, 5×10^6 U87 MG cells resuspended in PBS plus Matrigel (1:1) were injected in 200 uL final volume. As soon as the tumors were palpable and reached the volume of 200 mm3 the treatment was started. At day zero, mice were randomly divided into 3 groups, based on the tumor volume, in order to have the following experimental sub-cohorts: • control group receiving the vehicle (PBS pH7.2) with a dose of 5 ml/kg, intravenously (iv), once per week (QW); • PhAc-ALLP-PABC-MMAE (2 mg/kg iv, QW); • MMAE (0.9 mg/kg iv, QW).
(§4) Treatments were performed once per week for a total of four tail vein administrations/injections (on days 1, 7, 14 and 21). One extra week of observation followed the active treatment phase. During the experiment, tumor volume was measured two times a week and was assessed three-dimensionally with a digital caliper (Mitutoyo, Illinois) using the following formula:
V=4/3π×[(d/2)^2×(D/2)], where d is the minor tumor axis and D is the major tumor axis.

[4] = system: LS-174T colorectal tumor cells xenografted in Nude NMRI mice; assay: In vivo activity on LS-174T colorectal cancer xenograft; design: species or system mouse; details: twice per week
Method: The in vivo efficacy of PhAc-ALLP-Dox was tested in a mouse model of colorectal cancer. LS-174T colorectal tumor cells were xenografted in Nude NMRI mice. In total, 30 adult (9-10 weeks old) nude female NMRI mice (Janvier, France) were subjected to subcutaneous (SC) tumor cell grafting in the right flank. In total, 2×10^6 LS-174T cells resuspended in PBS were injected in 200 uL final volume. As soon as the tumors were palpable and reached the volume of 200 mm3 the treatment was started. […]
as §4, with “twice” for “once”, “4, 7” for “7, 14”, “10). […]” for “21). One extra week of observation followed the active treatment phase.”, “formula: […]” for “formula:”
Tumor growth inhibition (TGI) expressed as percentage vs control was calculated as follows: % TGI=(1−{Tt/T0/Ct/C0}/1−{C0/Ct})×100 where Tt and T0 are the individual tumor volume of treated mouse X at times t and 0 respectively, Ct and C0 are the mean tumor volume of the control group at times t and 0 respectively.

cancer cell lines = assay: In vitro potency and selectivity across a variety of cancer indications (WST-1); assay type: cell-based; details: 72 hrs
Method: as §1
as §2, with “For instance, if 20% of the cells survive incubation in the presence of a compound, then the maximal efficacy of that compound is 100%-20%=80%.” left out

With `COc1cccc2c1C(=O)c1c(O)c3c(c(O)c1C2=O)C[C@@](O)(C(=O)CO)C[C@@H]3O[C@H]1C[C@H](N)[C@H](O)[C@H](C)O1` [Doxorubicin, reference compound] the “SI = HME-1 IC50/cancer IC50” value (DU145 cells) was 1.55, the IC50 (DU145 cells; Homo sapiens, DU-145, DU145 (PrC), 72 hrs) was 0.03 µM and the cytotoxicity at 100 µM (DU145 cells; Homo sapiens, DU-145, DU145 (PrC), 72 hrs, WST-1 (Table 2), read-out: Maximal efficacy, cytotoxicity (%) at 100 μM) was 92.5%. The “SI = HME-1 IC50/cancer IC50” value (A2780 cells) was 9.15, the IC50 (A2780 cells; Homo sapiens, A2780 (OvC), 72 hrs) was under 10 nM and the cytotoxicity at 100 µM (A2780 cells; Homo sapiens, A2780 (OvC), 72 hrs, WST-1 (Table 2), read-out: Maximal efficacy, cytotoxicity (%) at 100 μM) was 96%. For the same compound, the “SI = HME-1 IC50/cancer IC50” value (HCT-116 cells) was 0.36, the IC50 (HCT-116 cells; Homo sapiens, HCT-116 (CrC), 72 hrs) was 0.12 µM and the cytotoxicity at 100 µM (HCT-116 cells; Homo sapiens, HCT-116 (CrC), 72 hrs, WST-1 (Table 2), read-out: Maximal efficacy, cytotoxicity (%) at 100 μM) was 93.5%. The cytotoxicity at 72 h, 100 µM [1] was 96.5%, the IC50 (LS 174T cells; Homo sapiens, LS174T, LS 174T (CrC), 72 hrs) was 10 nM and the cytotoxicity at 100 µM (LS 174T cells; Homo sapiens, LS174T, LS 174T (CrC), 72 hrs, WST-1 (Table 2), read-out: Maximal efficacy, cytotoxicity (%) at 100 μM) was 93.7%. For the same compound, the “SI = HME-1 IC50/cancer IC50” value (LS 174T cells) was 4.47, the cytotoxicity at 100 µM (A2780 Cp cells; A2780C/P, A2780 Cp (OvC), 72 hrs, WST-1 (Table 2), read-out: Maximal efficacy, cytotoxicity (%) at 100 μM) was 94.8% and the IC50 (A2780 Cp cells; A2780C/P, 72 hrs) was 80 nM. The “SI = HME-1 IC50/cancer IC50” value (A2780 Cp cells) was 0.57.
With `CC[C@H](C)[C@@H]([C@@H](CC(=O)N1CCCC1[C@H](OC)[C@@H](C)C(=O)N[C@H](C)[C@@H](O)c1ccccc1)OC)N(C)C(=O)[C@@H](NC(=O)[C@H](C(C)C)N(C)C(=O)OCc1ccc(NC(=O)[C@@H]2CCCN2C(=O)[C@H](CC(C)C)NC(=O)[C@H](CC(C)C)NC(=O)[C@H](C)NC(=O)CP(=O)(O)O)cc1)C(C)C` (some centres unmarked) [PhAc-ALLP-PABC-MMAE] (Phosphonoacetyl-ALLP[PABC][NMeV]V[Dil][X1]-X2) the IC50 [2] was 0.17 µM, the Maximal efficacy [2] was 98.1% and the Macroscopical toxicity [3] was “without any hint of macroscopical sign of toxicity”. The “Tumor volume compared to the untreated control group” value ([3]; four administrations) was “importantly reduced the tumor volume”.
In the case of `COc1cccc2c1C(=O)c1c(O)c3c(c(O)c1C2=O)C[C@@](O)(C(=O)CO)C[C@@H]3O[C@H]1C[C@H](NC(=O)[C@@H]2CCCN2C(=O)[C@H](CC(C)C)NC(=O)[C@H](CC(C)C)NC(=O)[C@H](C)NC(=O)CP(=O)(O)O)[C@H](O)[C@H](C)O1` [PhAc-ALLP-Dox, PhAc-ALLP-Doxorubicin] (HELM PEPTIDE1{[O=C(CP(=O)(O)O)[*:2]].A.L.L.P.[COc1cccc2c1C(=O)c1c(O)c3c(c(O)c1C2=O)C[C@@](O)(C(=O)CO)C[C@@H]3O[C@H]1C[C@H](N[*:1])[C@H](O)[C@H](C)O1]}$$$$V2.0), the IC50 [2] is reported as 41.6 µM, the Maximal efficacy [2] is reported as 53.1% and the “SI = HME-1 IC50/cancer IC50” value (DU145 cells) is reported as 5.25. The IC50 (DU145 cells; DU145 (PrC), 72 hrs) was 7.02 µM, the “Maximal efficacy, cytotoxicity (%) at 100 μM” value (DU145 cells; DU145 (PrC), 72 hrs, WST-1 (Table 2)) was 79.25% and the “SI = HME-1 IC50/cancer IC50” value (A2780 cells) was 701.33. For the same compound, the IC50 (A2780 cells; A2780 (OvC), 72 hrs) was 50 nM, the “Maximal efficacy, cytotoxicity (%) at 100 μM” value (A2780 cells; A2780 (OvC), 72 hrs, WST-1 (Table 2)) was 90.59% and the Tolerability ([4]; 10 mg/kg and 30 mg/kg iv) was “mice did tolerate both doses”. For the same compound, the “Tumor volume compared to the untreated control group” value ([4]; 30 mg/kg iv, four tail vein administrations) was “significantly reduced the tumor volume”, the “SI = HME-1 IC50/cancer IC50” value (HCT-116 cells) was 3.34 and the IC50 (HCT-116 cells; HCT-116 (CrC), 72 hrs) was 11.1 µM. For the same compound, the “Maximal efficacy, cytotoxicity (%) at 100 μM” value (HCT-116 cells; HCT-116 (CrC), 72 hrs, WST-1 (Table 2)) was 67.49%, the “Potency range against cancer cells” value (cancer cell lines) was “within the micromolar range” and the cytotoxicity at 72 h, 100 µM ([1]; HME-1 normal cells, 72 hrs, WST-1 (Table 2), read-out: Maximal efficacy, cytotoxicity (%) at 100 μM) was 59.5%. For the same compound, the “SI = HME-1 IC50/cancer IC50” value (LS 174T cells) was 1514.9, the IC50 (LS 174T cells; LS 174T (CrC), 72 hrs) was 20 nM and the “Maximal efficacy, cytotoxicity (%) at 100 μM” value (LS 174T cells; LS 174T (CrC), 72 hrs, WST-1 (Table 2)) was 54.86%. The “SI = HME-1 IC50/cancer IC50” value (A2780 Cp cells) was 257.22, the “Maximal efficacy, cytotoxicity (%) at 100 μM” value (A2780 Cp cells; A2780 Cp (OvC), 72 hrs, WST-1 (Table 2)) was 85.27% and the IC50 (A2780 Cp cells; 72 hrs) was 140 nM.
